Source: patent publication US20190160030A1, “CARBOXYLIC ACIDS FOR EARLY CHILDHOOD APPLICATION” (PROPONENT BIOTECH GMBH, priority 2016, published 2019)

How the values were obtained:
[1] = system: Nickel allergen contact hypersensitivity; assay: Contact hypersensitivity to Nickel allergen, topical propionate solution, clinical score of skin lesion; format: in vivo, human; settings: topical propionate solution subsequent to exposure to Nickel; worded as 'can be'
Excerpt: In this regard, human volunteers can be topically administered a propionate solution subsequent to exposure to a known allergen (e. g. Nickel); see Example 2. Symptoms of dermatitis and/or eczema can be observed, i.e. an allergic reaction. […] Accordingly, the compositions and methods of the invention as described herein in the various embodiments or aspects are, inter alia, effective following contact hypersensitivity to nickel. In addition, compositions and methods of the invention are effective in improving skin repair following an abrasion. Overall, treatment of skin with a solution containing propionate is effective at dampening skin diseases such as dermatitis and/or eczema and reducing redness of the skin, skin lesions, wrinkles, impurities and/or irregularities of the skin by improving the barrier function of the skin. […] The composition of the invention as described herein in the various embodiments or aspects can, inter alia, be applied topically and is relevant for the healthcare and cosmetics industry.
Allergic hypersensitivity can be induced through contact sensitization with Nickel allergen over a 12 hour time period. […] Clinical score of skin lesion can be determined by using protocols known in the art.

[2] = system: BALBC/J neonates sensitized and intranasally challenged with house dust mite (HDM); assay: Lung analysis after intranasal HDM challenge in the same model: BAL cell counts, PAS mucus staining; format: in vivo, mouse; settings: topical 5 mg sodium propionate vs vehicle, n=5 mice per group
Procedure: A) Airway eosinophil counts and B) airway neutrophils counts were determined in cytospins from bronchoalveolar lavage fluid collected at 72 hours after the last intranasal challenge.
C) Mucus production in the lung was quantified as the frequency of fully periodic acid-Schiff (PAS) stained cells in representative images of small and medium airways from PAS stained paraffin embedded lung tissue sections (4 μM). n=5 mice per group.
(§1) First generation BALBC/J (Charles River) neonates were topically treated on dorsal skin with 5 mg sodium propionate (50 μl of a 100 mg/ml Sodium propionate solution; Sodium propionate (Sigma Aldrich; catalogue number P5436) was dissolved in 0.9% NaCl and sterile filtered) or vehicle control (0.9% NaCl; Laboratorium G. Bichsel AG; catalogue number 1000096) on day 4 and 6 after birth. Ten days post birth epicutaneous sensitization with 15 μg house dust mite (HDM) (Greer Laboratories Inc.; catalogue number B84) was started. […]
Mouse tracheas were canulated and bronchoalveolar lavage (BAL) was performed with 500 μl PBS 0.2% BSA solution. Total BAL cell counts were determined using a Coulter Counter, and differential cell counts were determined on cytospin preparations of the BAL fluid. […]

[3] = system: BALBC/J neonates epicutaneously sensitized with house dust mite (HDM); assay: Neonatal topical treatment in the epicutaneous HDM atopic dermatitis model: skin inflammatory score, TEWL, skin histology; format: in vivo, mouse
Procedure: A) Skin inflammatory scoring (0—Normal; 1—Mild inflammation, 2—Moderate inflammation; 3—Marked inflammation; 4—Severe inflammation; 5—Very severe inflammation) was performed (blinded for the experimental conditions) on 8-10 representative images of haematoxylin and eosin stained paraffin embedded skin tissue sections (4 μM).
B) Transepidermal water loss (TEWL) measurement was performed 24 hours after the end of the third epicutaneous HDM sensitization round. Three measurements were taken per mouse. n=5 mice per group.
Skin tissue from the sensitized area was fixed in formalin, embedded in paraffin and 4 μM tissue sections were stained with haematoxylin and eosin. Representative images from vehicle treated controls (left) or sodium propionate treated mice (right) are shown at a 10× magnification. Inserts are shown at a 20× magnification.
as §1, with “started. Epicutaneous sensitization was performed by application of gauze (Dermaplast; catalogue number 214 010) soaked in 15 μg HDM on the dorsal skin of the neonate, which was secured by a bioclusive dressing (Systagenix; catalogue number 2463) and covered with adhesive tape (Mölnlycke Health Care; catalogue number 310500) to prevent removal of the gauze and consequently HDM ingestion. The sensitization was performed for three consecutive weeks, each week consisting of five consecutive days of sensitization, with a change of the gauze on day 3 and removal of the gauze on day 5, followed by a 2 day recovery period.” for “started.”

Compound: CCC(=O)[O-].[Na+] [propionate, Sodium propionate]
- clinical score (symptoms of dermatitis and/or eczema) [1]: significantly reduced
- allergic airway inflammation (airway eosinophil and neutrophil counts) ([2]; BAL fluid cytospins 72 hours after last intranasal challenge): protects against
- mucus production in the lung (frequency of PAS stained cells) ([2]; PAS stained lung sections, small and medium airways): protects against
- allergic dermatitis skin inflammation ([3]; topical 5 mg sodium propionate vs vehicle (0.9% NaCl), skin inflammatory scoring 0-5 on H&E skin sections, n=5 mice per group): protects against
- epidermal thickening ([3]; topical 5 mg sodium propionate vs vehicle, H&E stained skin sections from sensitized area): protects against
- disruption of skin barrier (transepidermal water loss, TEWL) ([3]; topical 5 mg sodium propionate vs vehicle, TEWL 24 hours after end of third epicutaneous HDM sensitization round, n=5 mice per group): protects against
